# Assay results taken from patent publication US10034879B2, “Substituted benzaldehyde compounds and methods for their use in increasing tissue oxygenation” (Global Blood Therapeutics, Inc., priority 2011, dated 2018).
# Target: T1, HbS/A (Homo sapiens, UniProt P68871+P69905, E7V)
# T1 construct: A mixture of HbS/A was purified from blood; from tissue; host or cells: blood of homozygous sickle cell patients
# Assay: Relaxed-to-tense transition assay (R/T assay)
# Type: biochemical
# Details: compound at 30 μm; 3 μM HbS/A
# Protocol: A relaxed-to-tense transition assay (“R/T assay”) was used to determine the ability of substituted benzaldehyde compounds to maintain the high-oxygen affinity relaxed (R) state of hemoglobin under deoxygenated conditions. This ability can be expressed as a “delta R” value (i.e., the change in the time-period of the R state after hemoglobin is treated with a compound, as compared to the period without treatment with the compound). Delta R is the % R to remaining after the compounds treatment compared with no treatment (e.g. if R % without treatment is 8% while with treatment with a target compound is 48% R at 30 μM, then % R is 40% for that compound.
# A mixture of HbS/A was purified from blood obtained from homozygous sickle cell patients though the Hemoglobinopathy Center at Children's Hospital Oakland Research Institute (CHORI) with Institutional Review Board approval. HbS/A (at a final concentration of 3 μM) was incubated for 1 hr at 37° C. in presence or absence of compounds in […] potassium phosphate buffer, pH=7.4 and 30 μM 2, 3 diphosphoglycerate (DPG) in 96 well plates in a final volume of 160 μl. Compounds were added at different concentrations (3 μM to 100 μM final concentrations). Plates were covered with a Mylar film. After incubation was completed the Mylar cover was removed and the plates were placed in a Spectrostar Nano plate reader previously heated at 37° C. Five minutes later, N2 (flow rate=20 L/min) was flowed through the spectrophotometer. Spectroscopic measurements (300 nm to 700 nm) were taken every 5 min for 2 hours. Data analysis was performed by using linear regression from the data retrieved for all wavelengths.
# Table 4 below lists the delta R values where + indicates a delta R of between 0 and 30, ++ indicates a delta R of between 30 and 50, and +++ indicates a delta R of 50 or greater. Unless noted otherwise, the compounds in Table 2 were tested at 9 μM.
smiles,measurement,value
"CC(C)n1nccc1-c1ncccc1COc1cccc(O)c1C=O [Compound 43, 2-hydroxy-6-((2-(1-isopropyl-1H-pyrazol-5-yl)pyridin-3-yl)methoxy)benzaldehyde]",delta R (%),+++ (30 μm) (+++ indicates a delta R of 50 or greater)
